Measurements taken from patent publication US8071642B2, “Dimethyl amino ethyl ether psoralens and methods for their production and use” (Rutgers, The State University of New Jersey, priority 2007, dated 2011).
Where a name gives a salt, the structure may show the parent alone.

System: PAM 212 keratinocytes
Test: Photo-induced growth inhibition assay against PAM 212 keratinocytes (UVA activated)
Format: cell-based
Conditions: 1.28 J/cm^2 UVA (320-400 nm), cells counted after 4-5 days of growth, read-out: IC50 (concentration at which photoactivated test compound inhibited growth by 50%)
Description: The photobiological activity was assayed using a keratinocyte cell line grown in a monolayer culture. In this assay, PAM 212 keratinocytes were grown in Dulbecco's Modified Eagle's medium supplemented with 10% newborn calf serum in a 5% carbon dioxide incubator. Cells were inoculated into 6-well Falcon plastic culture dishes at 25,000 cells per well. After 24 hours, the medium was charged to fresh growth medium supplemented with increasing concentrations of the test compounds or the control medium. Controls and test concentrations were analyzed in triplicate.
These plates were incubated in a 37° C. carbon dioxide incubator. After 30 minutes, culture plates were exposed to UVA light (UVA, 320-400 nm) emitted from a bank of four BLB fluorescence light tubes (F40 BL, Sylvania) placed approximately 10 cm above the cell culture plates. The incident light on the culture plates was 2.4 mW/cm^2 as measured with an International Light UV radiometer, Model IL442A). […]
After completion of the irradiation phase, the cell culture medium was drained, the cells were refed with fresh growth medium and then re-incubated with carbon dioxide incubator to allow for cell growth. […] The cells were detached from the plates with trypsin and counted in a Coulter Counter. For control cells or for cells treated with test compounds, cell growth was determined as a percentage of control.

Row | Molecule | IC50 [µM]
1 | 8-[2-(N,N-dimethylamino)ethoxyl-psoralen hydrochloride salt [Formula I (R=H, R1=H, A-B=—CH═CH—)] | 0.012
2 | CN(C)CCOc1c2c(cc3ccc(=O)oc13)CCO2 [Formula I R=H, R1=H, A-B=—CH2—CH2—, 8-[2-(N,N-dimethylamino)ethoxy]-4′,5′-dihydropsoralen hydrochloride salt] | 13
